≈ marks a conversion by molar mass, not a printed value. Square brackets hold non-standard residues; d marks the D form. Peptide text beside a SMILES is read from it. * marks the point of attachment. ξ: configuration not given here. X3 = NCCCC[C@H](NC(=O)[C@H](CCCCN)NC(=O)[C@H](CCCCN)NC(=O)[C@H](CCCCN)NCCCC(=O)[C@@H]1Cc2ccccc2CN1*)C(N)=O; Pro(3ξ,4ξ-(CH2)4) = O=C(O)[C@H]1NCC2CCCCC21; Phe(4-Cl) = N[C@@H](Cc1ccc(Cl)cc1)C(=O)O; Tic = O=C(O)[C@@H]1Cc2ccccc2CN1; X5 = CC(=O)NC(=O)[C@H](CCCCN)N*; Dab = NCC[C@H](N)C(=O)O; βAla = NCCC(=O)O
Assays:
Assay type in all cases: functional
[1] = system: Enterococcus faecium; experiment: Antibacterial activity against Enterococcus faecium MMC4 after 24 hrs by broth microdilution method; details: MMC4, 24 h
[2] = system: Klebsiella aerogenes; experiment: Antibacterial activity against Enterobacter aerogenes after 24 hrs by broth microdilution method
[3] = system: Pseudomonas aeruginosa; experiment: Antibacterial activity against Pseudomonas aeruginosa PAO1 after 24 hrs by broth microdilution method; details: PAO1, 24 h
[4] = system: Klebsiella pneumoniae; experiment: Antibacterial activity against Klebsiella pneumoniae BAMS clinical isolate 07-18 after 24 hrs by broth microdilution method; details: BAMS clinical isolate 07-18, 24 h
[5] = system: Acinetobacter baumannii; experiment: Antibacterial activity against Acinetobacter baumannii WRAIR clinical isolate 13 after 24 hrs by broth microdilution method; details: WRAIR clinical isolate 13, 24 h
[6] = system: Staphylococcus aureus; experiment: Antibacterial activity against methicillin-sensitive Staphylococcus aureus UAMS-1 after 24 hrs by broth microdilution method; details: UAMS-1, 24 h

Row | SMILES | MBC [1] [µg/mL] | MIC [1] [µg/mL] | MBC [2] [µg/mL] | MIC [2] [µg/mL] | MBC [3] [µg/mL] | MIC [3] [µg/mL] | MBC [4] [µg/mL] | MIC [4] [µg/mL] | MBC [5] [µg/mL] | MIC [5] [µg/mL] | MBC [6] [µg/mL] | MIC [6] [µg/mL]
1 | CC(=O)NCC(=O)N[C@@H](Cc1ccccc1)C(=O)N1Cc2ccccc2C[C@H]1C(=O)N1CC2CCCCC2[C@H]1C(=O)NCC(=O)N[C@@H](CCCCN)C(=O)N1Cc2ccccc2C[C@H]1C(=O)N1CC2CCCCC2[C@H]1C(=O)NCC(=O)N[C@@H](Cc1ccccc1)C(=O)N1Cc2ccccc2C[C@H]1C(=O)N1CC2CCCCC2[C@H]1C(=O)NCC(=O)N[C@@H](CCCCN)C(=O)N1Cc2ccccc2C[C@H]1C(=O)N[C@@H](CCCCN)C(=O)N[C@@H](CCCCN)C(=O)N[C@@H](CCCCN)C(=O)N[C@@H](CCCCN)C(N)=O (stereo not given in full) (Ac-GF[Tic][Pro(3ξ,4ξ-(CH2)4)]GK[Tic][Pro(3ξ,4ξ-(CH2)4)]GF[Tic][Pro(3ξ,4ξ-(CH2)4)]GK[Tic]KKKK-NH2) | 50 (≈ 20.5 µM) | 25 (≈ 10.2 µM) | 100 (≈ 41 µM) | 100 (≈ 41 µM) | 100 (≈ 41 µM) | 100 (≈ 41 µM) | 100 (≈ 41 µM) | 100 (≈ 41 µM) | 25 (≈ 10.2 µM) | 6.25 (≈ 2.56 µM) | > 100 | > 100
2 | CC(=O)NCC(=O)N[C@@H](Cc1ccc(Cl)cc1)C(=O)N1Cc2ccccc2C[C@H]1C(=O)N1CC2CCCCC2[C@H]1C(=O)NCC(=O)N[C@@H](CCCCN)C(=O)N1Cc2ccccc2C[C@H]1C(=O)N1CC2CCCCC2[C@H]1C(=O)NCC(=O)N[C@@H](Cc1ccc(Cl)cc1)C(=O)N1Cc2ccccc2C[C@H]1C(=O)N1CC2CCCCC2[C@H]1C(=O)NCC(=O)N[C@@H](CCCCN)C(=O)N1Cc2ccccc2C[C@H]1C(=O)N[C@@H](CCCCN)C(=O)N[C@@H](CCCCN)C(=O)N[C@@H](CCCCN)C(=O)N[C@@H](CCCCN)C(N)=O (stereo not given in full) (Ac-G[Phe(4-Cl)][Tic][Pro(3ξ,4ξ-(CH2)4)]GK[Tic][Pro(3ξ,4ξ-(CH2)4)]G[Phe(4-Cl)][Tic][Pro(3ξ,4ξ-(CH2)4)]GK[Tic]KKKK-NH2) | 25 (≈ 9.96 µM) | 6.25 (≈ 2.49 µM) | > 100 | > 100 | 50 (≈ 19.9 µM) | 50 (≈ 19.9 µM) | 100 (≈ 39.8 µM) | 50 (≈ 19.9 µM) | 25 (≈ 9.96 µM) | 6.25 (≈ 2.49 µM) | 50 (≈ 19.9 µM) | 25 (≈ 9.96 µM)
3 | CC(C)C[C@H](NC(=O)[C@@H](N)CCN)C(=O)N1Cc2ccccc2C[C@H]1C(=O)N1CC2CCCCC2[C@H]1C(=O)N[C@@H](CCN)C(=O)N1Cc2ccccc2C[C@H]1C(=O)N1CC2CCCCC2[C@H]1C(=O)N[C@@H](Cc1ccccc1)C(=O)N1Cc2ccccc2C[C@H]1C(=O)N1CC2CCCCC2[C@H]1C(=O)N[C@@H](CCN)C(=O)N1Cc2ccccc2C[C@H]1C(=O)N1CC2CCCCC2[C@H]1C(=O)N[C@@H](Cc1ccccc1)C(=O)N1Cc2ccccc2C[C@H]1C(=O)N1CC2CCCCC2[C@H]1C(=O)N[C@@H](CCN)C(=O)N1Cc2ccccc2C[C@H]1C(=O)N1CC2CCCCC2[C@H]1C(=O)N[C@@H](CCN)C(=O)N[C@@H](CCN)C(=O)N[C@@H](CCN)C(=O)N[C@@H](CCN)C(N)=O (stereo not given in full) (H-[Dab]L[Tic][Pro(3ξ,4ξ-(CH2)4)][Dab][Tic][Pro(3ξ,4ξ-(CH2)4)]F[Tic][Pro(3ξ,4ξ-(CH2)4)][Dab][Tic][Pro(3ξ,4ξ-(CH2)4)]F[Tic][Pro(3ξ,4ξ-(CH2)4)][Dab][Tic][Pro(3ξ,4ξ-(CH2)4)][Dab][Dab][Dab][Dab]-NH2) | 25 (≈ 8.1 µM) | 12.5 (≈ 4.05 µM) | 50 (≈ 16.2 µM) | 50 (≈ 16.2 µM) | 100 (≈ 32.4 µM) | 50 (≈ 16.2 µM) | 100 (≈ 32.4 µM) | 50 (≈ 16.2 µM) | 100 (≈ 32.4 µM) | 25 (≈ 8.1 µM) | 25 (≈ 8.1 µM) | 25 (≈ 8.1 µM)
4 | CC(=O)NCC(=O)N[C@@H](Cc1ccccc1)C(=O)N1Cc2ccccc2C[C@H]1C(=O)N1CC2CCCCC2[C@H]1C(=O)NCC(=O)N[C@@H](CCCCN)C(=O)N1Cc2ccccc2C[C@H]1C(=O)N1CC2CCCCC2[C@H]1C(=O)NCC(=O)N[C@@H](Cc1ccccc1)C(=O)N1Cc2ccccc2C[C@H]1C(=O)N1CC2CCCCC2[C@H]1C(=O)NCC(=O)N[C@@H](CCCCN)C(=O)N1Cc2ccccc2C[C@H]1C(=O)CCCN[C@@H](CCCCN)C(=O)N[C@@H](CCCCN)C(=O)N[C@@H](CCCCN)C(=O)N[C@@H](CCCCN)C(N)=O (stereo not given in full) (Ac-GF[Tic][Pro(3ξ,4ξ-(CH2)4)]GK[Tic][Pro(3ξ,4ξ-(CH2)4)]GF[Tic][Pro(3ξ,4ξ-(CH2)4)]GK-X3) | > 100 | 50 (≈ 20.1 µM) | > 100 | > 100 | > 100 | > 100 | > 100 | > 100 | 50 (≈ 20.1 µM) | 12.5 (≈ 5.03 µM) | > 100 | > 100
5 | CC(=O)NCCC(=O)N[C@@H](Cc1ccccc1)C(=O)N1Cc2ccccc2C[C@H]1C(=O)N1CC2CCCCC2[C@H]1C(=O)NCCC(=O)N[C@@H](CCCCN)C(=O)N1Cc2ccccc2C[C@H]1C(=O)N1CC2CCCCC2[C@H]1C(=O)NCCC(=O)N[C@@H](Cc1ccccc1)C(=O)N1Cc2ccccc2C[C@H]1C(=O)N1CC2CCCCC2[C@H]1C(=O)NCCC(=O)N[C@@H](CCCCN)C(=O)N1Cc2ccccc2C[C@H]1C(=O)N[C@@H](CCCCN)C(=O)N[C@@H](CCCCN)C(=O)N[C@@H](CCCCN)C(=O)N[C@@H](CCCCN)C(=O)NC(C)=O (stereo not given in full) (Ac-[βAla]F[Tic][Pro(3ξ,4ξ-(CH2)4)][βAla]K[Tic][Pro(3ξ,4ξ-(CH2)4)][βAla]F[Tic][Pro(3ξ,4ξ-(CH2)4)][βAla]K[Tic]KKK-X5) | 50 (≈ 19.7 µM) | 25 (≈ 9.85 µM) | > 100 | > 100 | > 100 | > 100 | > 100 | > 100 | 25 (≈ 9.85 µM) | 12.5 (≈ 4.92 µM) | > 100 | > 100
